Source: article doi:10.1101/2023.10.20.563248v1 (biorxiv, 2023)

Key:
LIMK2 = LIMK2 (Homo sapiens, UniProt P53671); test: NanoBRET tracer displacement, HEK293T; type: cell-based
[1] = molecular target: MST4 (full-length, NanoLuc fusion) (Homo sapiens, UniProt Q9P289); test: NanoBRET tracer displacement, HEK293T; type: cell-based
[2] = molecular target: MST3 (full-length, NanoLuc fusion) (Homo sapiens, UniProt Q9Y6E0); test: cell-based
BRAF = BRAF (Homo sapiens, UniProt P15056); details: 1 µM; inhibitor
BRAF, sequence (P15056 whole entry): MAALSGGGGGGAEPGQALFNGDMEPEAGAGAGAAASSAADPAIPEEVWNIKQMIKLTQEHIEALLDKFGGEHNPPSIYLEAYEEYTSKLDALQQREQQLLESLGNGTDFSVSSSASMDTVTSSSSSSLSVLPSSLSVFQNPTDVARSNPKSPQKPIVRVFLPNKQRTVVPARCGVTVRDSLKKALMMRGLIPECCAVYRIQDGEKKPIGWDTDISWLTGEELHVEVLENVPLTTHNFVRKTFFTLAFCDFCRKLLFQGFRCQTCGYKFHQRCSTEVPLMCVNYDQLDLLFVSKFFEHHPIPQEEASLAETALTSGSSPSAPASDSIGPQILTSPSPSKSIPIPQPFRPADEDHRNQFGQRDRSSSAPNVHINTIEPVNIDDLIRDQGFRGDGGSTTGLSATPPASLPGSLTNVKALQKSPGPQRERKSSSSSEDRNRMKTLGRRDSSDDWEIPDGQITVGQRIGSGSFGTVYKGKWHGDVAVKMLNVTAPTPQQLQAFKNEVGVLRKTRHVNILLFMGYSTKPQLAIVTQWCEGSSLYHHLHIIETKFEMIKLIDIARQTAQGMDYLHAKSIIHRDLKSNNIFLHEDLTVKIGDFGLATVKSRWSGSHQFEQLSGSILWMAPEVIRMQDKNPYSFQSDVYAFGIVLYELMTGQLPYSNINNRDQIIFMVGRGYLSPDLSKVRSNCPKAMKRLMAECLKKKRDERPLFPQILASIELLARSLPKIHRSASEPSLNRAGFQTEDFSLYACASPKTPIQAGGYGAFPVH

CDK1/CycA2 = CDK1/CycA2 (Homo sapiens, UniProt P06493); details: 1 µM; inhibitor
CDK1/CycB1 = CDK1/CycB1 (Homo sapiens, UniProt P06493); details: 1 µM; inhibitor
CDK1/CycB1, sequence (P06493 whole entry): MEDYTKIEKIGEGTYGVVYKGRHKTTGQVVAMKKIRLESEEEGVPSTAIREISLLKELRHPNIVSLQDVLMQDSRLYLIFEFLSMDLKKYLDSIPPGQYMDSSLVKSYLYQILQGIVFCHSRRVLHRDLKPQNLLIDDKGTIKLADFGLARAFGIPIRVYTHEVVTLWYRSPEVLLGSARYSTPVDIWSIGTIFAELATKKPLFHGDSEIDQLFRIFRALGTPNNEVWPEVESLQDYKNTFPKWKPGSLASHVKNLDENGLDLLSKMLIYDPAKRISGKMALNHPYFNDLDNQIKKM
CDK1/CycB1, sequence (P14635 whole entry, further chain): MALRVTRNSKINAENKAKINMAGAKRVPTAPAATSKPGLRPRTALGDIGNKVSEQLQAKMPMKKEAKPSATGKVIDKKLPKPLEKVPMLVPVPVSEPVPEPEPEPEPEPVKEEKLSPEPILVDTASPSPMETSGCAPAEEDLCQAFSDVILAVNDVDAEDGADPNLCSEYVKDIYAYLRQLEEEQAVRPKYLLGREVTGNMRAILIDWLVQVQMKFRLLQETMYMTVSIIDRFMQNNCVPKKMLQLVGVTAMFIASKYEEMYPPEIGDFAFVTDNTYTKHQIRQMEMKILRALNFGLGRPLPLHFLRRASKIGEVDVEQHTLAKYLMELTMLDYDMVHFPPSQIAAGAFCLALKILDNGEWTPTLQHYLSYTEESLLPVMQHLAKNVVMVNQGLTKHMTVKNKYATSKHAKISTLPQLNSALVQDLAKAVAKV

CDK11B = CDK11B (Homo sapiens, UniProt P21127); details: 1 µM; inhibitor
CDK16 = CDK16 (Homo sapiens, UniProt Q00536); details: 1 µM; inhibitor
CDK16, sequence (Q00536 whole entry): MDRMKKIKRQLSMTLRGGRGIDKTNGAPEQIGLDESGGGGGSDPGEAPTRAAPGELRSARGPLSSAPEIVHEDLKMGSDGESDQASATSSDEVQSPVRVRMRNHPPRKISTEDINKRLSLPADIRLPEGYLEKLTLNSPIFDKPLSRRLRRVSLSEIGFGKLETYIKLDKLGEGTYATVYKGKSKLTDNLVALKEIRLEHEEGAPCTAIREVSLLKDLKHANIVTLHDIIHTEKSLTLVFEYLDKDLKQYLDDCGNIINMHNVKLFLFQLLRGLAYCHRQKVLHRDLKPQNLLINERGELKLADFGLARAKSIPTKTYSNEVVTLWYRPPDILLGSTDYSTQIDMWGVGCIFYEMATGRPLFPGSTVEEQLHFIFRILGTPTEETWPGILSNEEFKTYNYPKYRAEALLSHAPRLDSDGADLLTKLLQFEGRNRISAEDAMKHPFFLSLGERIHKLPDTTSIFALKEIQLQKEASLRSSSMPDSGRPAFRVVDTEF

CK1a = CK1a (Homo sapiens, UniProt P48729); details: 1 µM; inhibitor
CLK4 = CLK4 (Homo sapiens, UniProt Q9HAZ1); details: 1 µM; inhibitor
DAPK2 = DAPK2 (Homo sapiens, UniProt Q9UIK4); details: 1 µM; inhibitor
DDR2 = DDR2 (Homo sapiens, UniProt Q16832); details: 1 µM; inhibitor
EPHA8 = EPHA8 (Homo sapiens, UniProt P29322); details: 1 µM; inhibitor
GRK2 = GRK2 (Homo sapiens, UniProt P25098); details: 1 µM; inhibitor
GRK7 = GRK7 (Homo sapiens, UniProt Q8WTQ7); details: 1 µM; inhibitor
HIPK1 = HIPK1 (Homo sapiens, UniProt Q86Z02); details: 1 µM; inhibitor
HIPK4 = HIPK4 (Homo sapiens, UniProt Q8NE63); details: 1 µM; inhibitor
IKKe = IKKe (Homo sapiens, UniProt Q14164); details: 1 µM; inhibitor
MLK4 = MLK4 (Homo sapiens, UniProt Q5TCX8); details: 1 µM; inhibitor
MLK4, sequence (Q5TCX8 whole entry): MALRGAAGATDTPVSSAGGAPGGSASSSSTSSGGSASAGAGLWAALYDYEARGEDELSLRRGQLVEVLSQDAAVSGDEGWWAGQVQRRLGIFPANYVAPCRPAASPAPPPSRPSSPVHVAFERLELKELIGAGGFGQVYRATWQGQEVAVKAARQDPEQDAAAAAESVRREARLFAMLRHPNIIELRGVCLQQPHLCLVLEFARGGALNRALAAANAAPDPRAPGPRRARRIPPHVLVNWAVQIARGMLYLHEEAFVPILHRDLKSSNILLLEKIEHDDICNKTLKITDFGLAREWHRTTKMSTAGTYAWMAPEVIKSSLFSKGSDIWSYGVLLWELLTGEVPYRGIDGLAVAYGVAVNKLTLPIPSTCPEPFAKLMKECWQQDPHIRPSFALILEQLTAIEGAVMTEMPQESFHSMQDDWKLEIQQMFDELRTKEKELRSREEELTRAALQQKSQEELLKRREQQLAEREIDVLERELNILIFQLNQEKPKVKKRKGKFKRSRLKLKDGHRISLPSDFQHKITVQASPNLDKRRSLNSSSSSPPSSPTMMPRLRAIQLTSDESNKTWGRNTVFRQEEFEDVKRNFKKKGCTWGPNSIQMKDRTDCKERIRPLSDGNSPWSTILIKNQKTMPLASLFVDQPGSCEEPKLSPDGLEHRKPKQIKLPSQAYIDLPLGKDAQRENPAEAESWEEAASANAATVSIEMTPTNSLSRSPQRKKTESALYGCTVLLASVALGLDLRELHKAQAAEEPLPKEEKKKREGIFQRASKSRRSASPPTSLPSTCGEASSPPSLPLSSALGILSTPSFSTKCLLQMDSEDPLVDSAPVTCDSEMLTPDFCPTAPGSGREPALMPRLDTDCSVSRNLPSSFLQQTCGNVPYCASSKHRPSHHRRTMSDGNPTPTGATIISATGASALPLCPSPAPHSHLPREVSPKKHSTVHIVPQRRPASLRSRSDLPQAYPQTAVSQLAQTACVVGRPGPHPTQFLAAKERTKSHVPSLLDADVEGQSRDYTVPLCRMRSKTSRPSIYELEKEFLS

NEK7 = NEK7 (Homo sapiens, UniProt Q8TDX7); details: 1 µM; inhibitor
NEK7, sequence (Q8TDX7 whole entry): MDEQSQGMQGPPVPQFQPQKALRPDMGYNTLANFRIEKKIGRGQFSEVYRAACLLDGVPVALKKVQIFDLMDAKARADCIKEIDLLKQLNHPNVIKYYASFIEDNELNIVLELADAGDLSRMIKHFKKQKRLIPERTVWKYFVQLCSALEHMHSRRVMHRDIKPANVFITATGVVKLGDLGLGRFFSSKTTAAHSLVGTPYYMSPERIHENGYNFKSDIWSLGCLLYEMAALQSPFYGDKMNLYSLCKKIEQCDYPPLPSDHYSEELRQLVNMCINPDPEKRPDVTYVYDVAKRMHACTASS

PAK6 = PAK6 (Homo sapiens, UniProt Q9NQU5); details: 1 µM; inhibitor
PIM3 = PIM3 (Homo sapiens, UniProt Q86V86); details: 1 µM; inhibitor
PKCg = PKCg (Homo sapiens, UniProt P05129); details: 1 µM; inhibitor
SYK = SYK (Homo sapiens, UniProt P43405); details: 1 µM; inhibitor
TGFBR1 = TGFBR1 (Homo sapiens, UniProt P36897); details: 1 µM; inhibitor
p38a = p38a (Homo sapiens, UniProt Q16539); details: 1 µM; inhibitor
p38a, sequence (Q16539 whole entry): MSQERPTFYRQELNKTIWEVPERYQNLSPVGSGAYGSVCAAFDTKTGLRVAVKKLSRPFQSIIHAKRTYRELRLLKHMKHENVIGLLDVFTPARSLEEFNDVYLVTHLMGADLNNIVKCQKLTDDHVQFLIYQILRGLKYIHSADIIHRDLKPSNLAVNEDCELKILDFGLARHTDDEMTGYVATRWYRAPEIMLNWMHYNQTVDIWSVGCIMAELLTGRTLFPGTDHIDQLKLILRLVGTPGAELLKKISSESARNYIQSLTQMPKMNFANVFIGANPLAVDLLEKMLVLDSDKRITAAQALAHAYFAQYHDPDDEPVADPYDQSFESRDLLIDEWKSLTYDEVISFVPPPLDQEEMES

DYRK1B = DYRK1B (Homo sapiens, UniProt Q9Y463); test: biochemical; details: read-out: 21c Remaining activity, percent of control [%]
LTK = LTK (Homo sapiens, UniProt P29376); test: biochemical; details: read-out: 21c Remaining activity, percent of control [%]
MST3 = MST3 (Homo sapiens, UniProt Q9Y6E0); test: biochemical; details: 1 µM; inhibitor
STK33 = STK33 (Homo sapiens, UniProt Q9BYT3); test: biochemical; details: read-out: 21c Remaining activity, percent of control [%]
TTBK1 = TTBK1 (Homo sapiens, UniProt Q5TCY1); test: biochemical; details: read-out: 21c Remaining activity, percent of control [%]

LIMK2, sequence (P53671 whole entry, the tested form may be a part): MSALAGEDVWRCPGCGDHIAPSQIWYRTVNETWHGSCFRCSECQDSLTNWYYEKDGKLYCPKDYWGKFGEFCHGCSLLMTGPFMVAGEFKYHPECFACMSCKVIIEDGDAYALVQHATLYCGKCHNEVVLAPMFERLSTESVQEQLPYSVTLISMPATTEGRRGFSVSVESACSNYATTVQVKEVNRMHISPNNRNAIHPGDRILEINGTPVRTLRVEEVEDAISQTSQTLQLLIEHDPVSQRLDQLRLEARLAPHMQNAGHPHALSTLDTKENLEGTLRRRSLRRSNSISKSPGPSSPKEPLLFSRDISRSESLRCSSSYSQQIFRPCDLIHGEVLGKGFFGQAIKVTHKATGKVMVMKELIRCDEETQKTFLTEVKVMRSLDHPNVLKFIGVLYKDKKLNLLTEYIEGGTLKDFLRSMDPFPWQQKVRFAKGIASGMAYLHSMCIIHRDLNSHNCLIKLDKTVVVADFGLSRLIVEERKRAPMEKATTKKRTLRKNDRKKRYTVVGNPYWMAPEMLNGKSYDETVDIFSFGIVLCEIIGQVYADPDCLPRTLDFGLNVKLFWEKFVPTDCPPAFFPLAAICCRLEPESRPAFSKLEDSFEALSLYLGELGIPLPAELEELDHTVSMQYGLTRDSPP

SMILES: O=C1NCCCCCNc2nc(c3ccccc3n2)Nc2cc1[nH]n2 [21c, (Z)-3^1H-2,5,11-triaza-1(4,2)-quinazolina-3(3,5)-pyrazolacycloundecaphan-4-one]
- EC50 (LIMK2): 1400 nM
- EC50 [1]: 1400 nM
- EC50 [2]: 106 nM
- 21c Remaining activity, percent of control [%] (BRAF): 89.7%
- 21c Remaining activity, percent of control [%] (CDK1/CycA2): 91.9%
- 21c Remaining activity, percent of control [%] (CDK1/CycB1): 87.2%
- 21c Remaining activity, percent of control [%] (CDK11B): 91.2%
- 21c Remaining activity, percent of control [%] (CDK16): 94.1%
- 21c Remaining activity, percent of control [%] (CK1a): 102.0%
- 21c Remaining activity, percent of control [%] (CLK4): 76.4%
- 21c Remaining activity, percent of control [%] (DAPK2): 100.3%
- 21c Remaining activity, percent of control [%] (DDR2): 103.0%
- 21c Remaining activity, percent of control [%] (EPHA8): 112.4%
- 21c Remaining activity, percent of control [%] (GRK2): 96.7%
- 21c Remaining activity, percent of control [%] (GRK7): 89.2%
- 21c Remaining activity, percent of control [%] (HIPK1): 97.2%
- 21c Remaining activity, percent of control [%] (HIPK4): 115.2%
- 21c Remaining activity, percent of control [%] (IKKe): 103.6%
- 21c Remaining activity, percent of control [%] (MLK4): 99.1%
- 21c Remaining activity, percent of control [%] (NEK7): 98.8%
- 21c Remaining activity, percent of control [%] (PAK6): 95.0%
- 21c Remaining activity, percent of control [%] (PIM3): 88.9%
- 21c Remaining activity, percent of control [%] (PKCg): 79.4%
- 21c Remaining activity, percent of control [%] (SYK): 99.7%
- 21c Remaining activity, percent of control [%] (TGFBR1): 124.6%
- 21c Remaining activity, percent of control [%] (p38a): 92.7%
- remaining activity at 1 µM (DYRK1B): 79.7%
- remaining activity at 1 µM (LTK): 92%
- 21c Remaining activity, percent of control [%] (MST3): 13.5%
- remaining activity at 1 µM (STK33): 88.7%
- remaining activity at 1 µM (TTBK1): 112%
